Results published in ChEMBL document CHEMBL1136884, “Antiplasmodial and antitrypanosomal activity of bicyclic amides and esters of dialkylamino acids” (Bioorg Med Chem, 2009).
The source made the active and inactive calls. The calls are words filed in the database; no cut-off is given here.

Key:
Plasmodium falciparum = assay: Antimalarial activity against chloroquine and pyrimethamine-resistant Plasmodium falciparum K1 after 48 hrs as [3H]hypoxanthine uptake; format: functional, organism-based
[1] = system: Trypanosoma brucei rhodesiense; assay: Antitrypanosomal activity against Trypanosoma brucei rhodesiense after 72 hrs by alamar blue assay; format: functional, organism-based
L6 = assay: Cytotoxicity against rat L6 cells after 72 hrs by alamar blue assay; format: cell-based; details: L6, 72 h
[2] = Selectivity index, ratio of IC50 for rat L6 cells to IC50 for Plasmodium falciparum K1; format: toxicity, cell-based; details: L6 cells (versus Plasmodium falciparum K1), read-out: Ratio IC50
[3] = Selectivity index, ratio of IC50 for rat L6 cells to IC50 for Trypanosoma brucei rhodesiense; format: toxicity, cell-based; details: L6 cells (versus Trypanosoma brucei rhodesiense), read-out: Ratio IC50
Plasmodium berghei [4] = assay: Antiplasmodial activity against Plasmodium berghei ANKA infected Fu albino mice (Mus musculus) at 0.01 mL/kg intraperitoneal dose at 24 hrs as parasitaemia per 1000 erythrocytes; format: functional
Plasmodium berghei [5] = assay: Antiplasmodial activity as increased MST against Plasmodium berghei ANKA infected Fu albino mice (Mus musculus) at 0.01 mL/kg intraperitoneal dose after 24 hrs; format: functional, organism-based

| SMILES | IC50 (Plasmodium falciparum) | IC50 [1] | IC50 (L6) | selectivity ratio [2] | selectivity ratio [3] | Activity (Plasmodium berghei [4]) | Activity (Plasmodium berghei [5]) |
| --- | --- | --- | --- | --- | --- | --- | --- |
| CN(C)C12CCNC(C(c3ccccc3)C1)C(c1ccccc1)C2 (centres undefined) | 280 nM | 600 nM | 109000 nM | 389 | 181 |  |  |
| CN(C)C12CC(OC(=O)CN3CCCC3)C(C(c3ccccc3)C1)C(c1ccccc1)C2 (centres undefined) | 710 nM | 210 nM | 32700 nM | 46 | 156 |  |  |
| CCN(CC)CC(=O)OC1CC2(N(C)C)CC(c3ccccc3)C1C(c1ccccc1)C2 (centres undefined) | 2720 nM | 610 nM | 30100 nM | 11.1 | 49.4 |  |  |
| O=C(CN1CCCC1)OC1CC2(N3CCCCC3)CC(c3ccccc3)C1C(c1ccccc1)C2 (centres undefined) | 470 nM | 320 nM | 16400 nM | 34.9 | 51.2 |  |  |
| CN(C)C12CC(OC(=O)CN3CCCCC3)C(C(c3ccccc3)C1)C(c1ccccc1)C2 (centres undefined) | 520 nM | 1990 nM | 29300 nM | 56.3 | 14.7 |  |  |
| O=C(CN1CCCCC1)OC1CC2(N3CCCC3)CC(c3ccccc3)C1C(c1ccccc1)C2 (centres undefined) | 370 nM | 370 nM | 14200 nM | 38.4 | 38.4 |  |  |
| c1ccc(C2CC3(N4CCCC4)CCNC2C(c2ccccc2)C3)cc1 (centres undefined) | 560 nM | 1160 nM | 120000 nM | 215 | 104 |  |  |
| CCN(CC)CC(=O)OC1CC2(N3CCCC3)CC(c3ccccc3)C1C(c1ccccc1)C2 (centres undefined) | 200 nM | 720 nM | 49000 nM | 245 | 68.1 |  |  |
| CCN(CC)CC(=O)OC1CC2(N3CCCCC3)CC(c3ccccc3)C1C(c1ccccc1)C2 (centres undefined) | 250 nM | 560 nM | 23900 nM | 95.7 | 42.7 |  |  |
| O=C(CN1CCCCC1)OC1CC2(N3CCCCC3)CC(c3ccccc3)C1C(c1ccccc1)C2 (centres undefined) | 180 nM | 870 nM | 60400 nM | 336 | 69.4 |  |  |
| c1ccc(C2CC3(N4CCCCC4)CCNC2C(c2ccccc2)C3)cc1 (centres undefined) | 640 nM | 6570 nM | 89700 nM | 140 | 13.7 |  |  |
| NC1CC2(N3CCCC3)CC(c3ccccc3)C1C(c1ccccc1)C2 (centres undefined) | 650 nM | 410 nM | 38100 nM | 58.6 | 92.9 |  |  |
| CN(C)C12CC(N)C(C(c3ccccc3)C1)C(c1ccccc1)C2 (centres undefined) | 610 nM | 350 nM | 40900 nM | 67 | 117 |  |  |
| NCC(=O)OC1CC2(N3CCCC3)CC(c3ccccc3)C1C(c1ccccc1)C2 (centres undefined) | 700 nM | 230 nM | 42900 nM | 61.3 | 187 |  |  |
| NC1CC2(N3CCCCC3)CC(c3ccccc3)C1C(c1ccccc1)C2 (centres undefined) | 550 nM | 270 nM | 35000 nM | 63.5 | 129 |  |  |
| CN1CCN(CC(=O)NC2CC3(N(C)C)CC(c4ccccc4)C2C(c2ccccc2)C3)CC1 (racemic) | 2580 nM | 1600 nM | 66200 nM | 25.7 | 41.4 |  |  |
| CN1CCN(CC(=O)NC2CC3(N4CCCC4)CC(c4ccccc4)C2C(c2ccccc2)C3)CC1 (racemic) | 820 nM | 1130 nM | 50200 nM | 61.3 | 44.5 |  |  |

| SMILES | IC50 (Plasmodium falciparum) | IC50 [1] | IC50 (L6) | selectivity ratio [2] | selectivity ratio [3] | Activity (Plasmodium berghei [4]) | Activity (Plasmodium berghei [5]) |
| --- | --- | --- | --- | --- | --- | --- | --- |
| CN1CCN(CC(=O)OC2CC3(N4CCCC4)CC(c4ccccc4)C2C(c2ccccc2)C3)CC1 (racemic) | 540 nM | 140 nM | 24600 nM | 45.5 | 176 |  |  |
| CN1CCN(CC(=O)OC2CC3(N4CCCCC4)CC(c4ccccc4)C2C(c2ccccc2)C3)CC1 (racemic) | 106 nM | 870 nM | 29500 nM | 278 | 33.9 | 15% | inactive |
| CN1CCN(CCC(=O)N2CCC3(N4CCCC4)CC(c4ccccc4)C2C(c2ccccc2)C3)CC1 (racemic) | 900 nM | 31900 nM | 75400 nM | 83.8 | 2.36 |  |  |
| CN1CCN(CC(=O)N2CCC3(N4CCCC4)CC(c4ccccc4)C2C(c2ccccc2)C3)CC1 (racemic) | 830 nM | 41100 nM | 69100 nM | 83.2 | 1.68 |  |  |
| CN1CCN(CC(=O)N2CCC3(N4CCCCC4)CC(c4ccccc4)C2C(c2ccccc2)C3)CC1 (racemic) | 620 nM | 92000 nM | 177000 nM | 286 | 1.93 |  |  |
| CN1CCN(CC(=O)N2CCC3(N(C)C)CC(c4ccccc4)C2C(c2ccccc2)C3)CC1 (racemic) | 2370 nM | 45800 nM | 195000 nM | 82.4 | 4.27 |  |  |
| CN1CCN(CCC(=O)N2CCC3(N4CCCCC4)CC(c4ccccc4)C2C(c2ccccc2)C3)CC1 (racemic) | 600 nM | 30800 nM | 120000 nM | 200 | 3.89 |  |  |
| CN1CCN(CCC(=O)NC2CC3(N4CCCCC4)CC(c4ccccc4)C2C(c2ccccc2)C3)CC1 (racemic) | 280 nM | 860 nM | 61100 nM | 218 | 71 |  |  |
| CN1CCN(CC(=O)OC2CC3(N(C)C)CC(c4ccccc4)C2C(c2ccccc2)C3)CC1 (racemic) | 350 nM | 130 nM | 39900 nM | 114 | 307 |  |  |
| CN1CCN(CC(=O)NC2CC3(N4CCCCC4)CC(c4ccccc4)C2C(c2ccccc2)C3)CC1 (racemic) | 380 nM | 690 nM | 57500 nM | 151 | 83.4 |  |  |
| CN1CCN(CCC(=O)NC2CC3(N4CCCC4)CC(c4ccccc4)C2C(c2ccccc2)C3)CC1 (racemic) | 2080 nM | 4150 nM | 86700 nM | 41.7 | 20.9 |  |  |
| CN1CCN(CCC(=O)NC2CC3(N(C)C)CC(c4ccccc4)C2C(c2ccccc2)C3)CC1 (racemic) | 4190 nM | 2740 nM | 95000 nM | 22.7 | 34.7 |  |  |
| CN1CCN(CCC(=O)N2CCC3(N(C)C)CC(c4ccccc4)C2C(c2ccccc2)C3)CC1 (racemic) | 1740 nM | 28200 nM | 128000 nM | 73.5 | 4.52 |  |  |
| C[C@@H]1CC[C@H]2[C@@H](C)C(=O)O[C@@H]3O[C@@]4(C)CC[C@@H]1[C@]32OO4 [ARTEMISININ] | 6.4 nM |  | 450000 nM | 70400 |  |  |  |
| CCN(CC)CCCC(C)Nc1ccnc2cc(Cl)ccc12 (centres undefined) [CHLOROQUINE] |  |  | 188000 nM |  |  |  |  |
| Nc1nc(N)nc(Nc2ccc([As]3SCC(CO)S3)cc2)n1 (centres undefined) [MELARSOPROL] |  | 3.9 nM | 7780 nM |  | 2000 |  |  |
